Data on two compounds can be found in patent US9192602B2, “Indication of anthra[2,1,c][1,2,5]thiadiazole-6,11-dione compound in alleviating pain” (NATIONAL CENTRAL UNIVERSITY, priority 2014, dated 2015).

One data set deals with mice. Nature of the data set: Inflammatory pain: chronic inflammatory pain induced by Complete Freund's Adjuvant (CFA), von Frey test. The format is in vivo. The conditions noted are these: 60 min after CFA. The procedure: When 50% CFA was intraplantarly injected into the mouse, paw edema and chronic mechanical hyperalgesia were developed in the tested mice. Different dosages of the anthra[2,1-c][1,2,5]thiadiazole-6,11-dione compound, 0.22, 2.2, 22 μg/kg were intraplantarly injected into mouse hindpaw, followed by 50% CFA injection. At 60 minutes after the CFA injection, the pain sensitivity of the mice was measured by mechanical stimulation using von Frey filaments.
(§1) 2.2 μg/kg of the compound was administered to the mice by intraplantar injection about 5 minutes prior to the injection of the acid solution. An hour after the injection of the acid, the hypersensitivity of the mice to mechanical stimuli was measured using von Frey filaments (Touch-Test North Coast Medical, Inc., Margan Hill, Calif.). […] 60 minutes after the mice were administered with the compound, the mechanical hyperalgesia was assessed through the measurement of paw withdrawal frequencies by a sequential series of von Frey filaments of weights 0.6, 1.0, 1.4, 2.0 and 4.0 g applied perpendicularly to the plantar surface of the paw. […] The occurrence of paw withdrawal resulting from the stimulation or removing the stimulation for each trial was quantified as a percentage response frequency for each monofilament. When the frequency was more than 50%, the weight of the von Frey filaments was determined as the paw withdrawal threshold (PWT). […]

Data set [1] deals with CD-1 mice. Briefly: Neuropathic pain: chronic constriction injury (CCI) of the sciatic nerve, von Frey mechanical hyperalgesia test. The class given is in vivo. The text has this: The assessment of the effectiveness of the compound for alleviating neuropathic pain used the animal model of chronic constriction injury (CCI) of the sciatic nerve, which was established by Bennett and Xie (1988). After the surgery, the mice developed long-lasting hypersensitivity to mechanical stimuli (chronic mechanical hyperalgesia) even being lightly touched. The mechanical hyperalgesia test was used to evaluate the analgesic effect of the compound.
The mice, after a week following the ligation surgery, were intraplantarly injected with a series of different dosages of the compound, 0.22, 2.2, 22 μg/kg or the mice were injected with 2.2 μg/kg of compound intrathecally, or with 44 μg/kg of the compound intraperitoneally. The hypersensitivity to mechanical stimuli was measured using von Frey filaments at 60 minutes after the injection. The mice injected with saline following surgery were the control group and the other mice injected with gabapentin following surgery were the positive control group.
2.2 μg/kg of the compound was administered to the mice by intraplantar injection about 5 minutes prior to the injection of the acid solution. An hour after the injection of the acid, the hypersensitivity of the mice to mechanical stimuli was measured using von Frey filaments (Touch-Test North Coast Medical, Inc., Margan Hill, Calif.). The mice were placed in transparent plastic chambers (10×8×10 cm) on a metal mesh floor at least 30 minutes per day for 2 days to acclimatize them to the testing room prior to the test. 60 minutes after the mice were administered with the compound, the mechanical hyperalgesia was assessed through the measurement of paw withdrawal frequencies by a sequential series of von Frey filaments of weights 0.6, 1.0, 1.4, 2.0 and 4.0 g applied perpendicularly to the plantar surface of the paw. The paw was briefly stimulated with force sufficient to slightly bend the filaments and a single trial consisted of repeated applications of the von Frey filaments five times, each application lasting for about 5 seconds. The occurrence of paw withdrawal resulting from the stimulation or removing the stimulation for each trial was quantified as a percentage response frequency for each monofilament. When the frequency was more than 50%, the weight of the von Frey filaments was determined as the paw withdrawal threshold (PWT). To make sure all the mice were under normal physical conditions, all housing conditions complied with general feeding standards, and the temperature and illumination were maintained in a suitable range.
According to the method described by Bennett and Xie, Pain, 1988, 33, 87-107, 8 to 12-week-old CD-1 mice were subjected to chronic constriction injury (CCI) of the sciatic nerve, which is an animal model inducing chronic neuropathic pain. To anesthetize the mice, each of the mice was injected with 240 mg/kg of 2,2,2-tribromoethanol (Avertin). Then three ligatures were loosely tied around the sciatic nerve of the mouse with chromic gut. The surgical procedure for the Sham (non ligation) control group was identical to that mentioned above except that the sciatic nerves were not ligated. A week after the mice in the experimental (CCI+compound) group had chronic constriction injury of sciatic nerves, the compound was intraplantarly, intrathecally, or intraperitoneally injected into the mice. 60 minutes after the injection, the mice were directly subjected to the hypersensitivity test to mechanical stimuli. The mice under the surgery treated with saline were the CCI group; the mice treated with gabapentin were the positive control (CCI+Gabapentin) group.

Data set [2] deals with CD-1 mice. Briefly: Nociceptive pain: acute pain induced by acid solution, von Frey mechanical hyperalgesia test. The class given is in vivo. On the procedure:
Anthra[2,1-c][1,2,5]thiadiazole-6,11-dione (NSC745885, B1) was intraplantarly injected into the right hind paws of 8 to 12-week-old CD-1 mice. 5 minutes after the injection, 25 μL of pH 5.0 acid solution was intraplantarly injected into each of the mice. About 60 minutes later, the mice were directly tested with the hypersensitivity to mechanical stimuli using von Frey filaments (Touch-Test North Coast Medical, Inc., Margan Hill, Calif.). The control group was conducted under the same conditions except it was treated with a compound-free saline. […]
as §1, with “monofilament.” for “monofilament. When the frequency was more than 50%, the weight of the von Frey filaments was determined as the paw withdrawal threshold (PWT).”

For another data set, the system named is human cancer cell lines. As to conditions: NCI panel (leukemia, non-small cell lung cancer, colon cancer, etc.); Taiwan Patent application 097112087; cited from earlier work.

In the case of `O=C1c2ccccc2C(=O)c2c1ccc1nsnc21` [B1, Anthra[2,1-c][1,2,5]thiadiazole-6,11-dione], the “paw withdrawal threshold (PWT)” value with mice (2.2 μg/kg intraplantar 5 min before 50% CFA, CFA only 0.4±0.033 g, control 3.6±0.202 g) is 1.6 ± 0.15 g; with mice (22 μg/kg intraplantar 5 min before 50% CFA), 3.0 ± 0.45 g; in the data set on CD-1 mice [1] (2.2 μg/kg intraplantar once every week for three weeks, first week), 2.5 ± 0.8 g; in the data set with CD-1 mice [1] (2.2 μg/kg intraplantar once every week for three weeks, second week) it was 2.0 ± 0 g; with CD-1 mice [1] (2.2 μg/kg intraplantar once every week for three weeks, third week), 2.7 ± 0.67 g; with CD-1 mice [1] (2.2 μg/kg intraplantar, one week after CCI surgery, 60 min after injection, CCI only 0.9±0.23 g, control 3.6±0.29 g), 2.5 ± 0.8 g. Besides, the “paw withdrawal threshold (PWT)” value amounted to 4.0 g with CD-1 mice [1] (2.2 μg/kg intrathecal, one week after CCI surgery, 60 min after injection); 4.0 ± 0.0 g in the data set with CD-1 mice [1] (22 μg/kg intraplantar, one week after CCI surgery, 60 min after injection); 3.3 ± 0.67 g with CD-1 mice [2] (2.2 μg/kg intraplantar, 5 min before 25 μL pH 5.0 acid solution, measured about 60 min later, acid only 1.1±0.065 g, control 4.0±0 g); 4.0 ± 0 g with CD-1 mice [2] (sole injection of the compound without the acid solution, did not induce pain). Moreover, in the data set on CD-1 mice [1] (2.2 μg/kg intraplantar once every week for three weeks), the “development of tolerance to the compound” value is recorded as “no obvious indication that the mice developed tolerance”. Also, the “inhibition of mechanical hyperalgesia induced by CCI of the sciatic nerve” value in the data set with CD-1 mice [1] (44 μg/kg intraperitoneal) is recorded as “completely inhibited mechanical hyperalgesia”. Also, in the data set on human cancer cell lines, the “anti-proliferative activity against human cancer cell lines” value was “shows anti-proliferative activity against human cancer cell lines”.

Take `NCC1(CC(=O)O)CCCCC1` [gabapentin, reference compound]: in the data set on CD-1 mice [1] (intraperitoneal injection), the “dosage required to inhibit chronic mechanical hyperalgesia caused by CCI” value is listed as “at least 15,000 μg/kg”.
